# Structures can show the parent of a compound that is named as a salt. Where two headings read alike, the source gives them in different places.
# Assays:
# Type in all cases: biochemical
# [1] = target: T1, recombinant human MAO-B (monoamine oxidase-B) (Homo sapiens, UniProt P27338); assay: Activity evaluation on recombinant human MAO-B (Amplex Red/HRP-coupled assay, 1 mM benzylamine substrate); conditions: read-out: Inhibitory Activity (IC50, nM) MAO-B
# T1 construct: purchased Sigma-Aldrich
# T1 sequence (P27338 1-520): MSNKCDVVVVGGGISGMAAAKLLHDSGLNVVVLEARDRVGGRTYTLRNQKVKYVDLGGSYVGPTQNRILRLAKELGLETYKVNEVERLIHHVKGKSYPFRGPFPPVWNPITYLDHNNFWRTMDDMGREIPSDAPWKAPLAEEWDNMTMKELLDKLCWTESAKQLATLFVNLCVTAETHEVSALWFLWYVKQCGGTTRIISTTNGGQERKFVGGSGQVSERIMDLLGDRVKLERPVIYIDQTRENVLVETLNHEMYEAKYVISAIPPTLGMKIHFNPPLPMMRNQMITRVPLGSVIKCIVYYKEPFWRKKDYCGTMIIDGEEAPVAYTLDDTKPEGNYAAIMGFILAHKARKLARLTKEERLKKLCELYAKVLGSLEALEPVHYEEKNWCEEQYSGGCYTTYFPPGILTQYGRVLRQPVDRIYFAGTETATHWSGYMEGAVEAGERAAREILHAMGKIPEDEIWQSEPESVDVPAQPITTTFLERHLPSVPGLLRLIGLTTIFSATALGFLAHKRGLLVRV
# In short: (§1)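 Compounds preincubated 30 min at 37 °C with enzyme in 50 mM sodium phosphate pH 7.4 (final DMSO <1%, 8-point 1:3 dilutions); reaction started with 200 uM Amplex Red, 1 U/mL HRP and substrate (MAO-A 0.5 mM tyramine, MAO-B 1 mM benzylamine, DAO 1 mM putrescine). Resorufin fluorescence (ex 544/em 590 nm) followed over 1-2 h; IC50 from four-parameter logistic fit.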
# [2] = target: T2, recombinant human MAO-A (monoamine oxidase-A) (Homo sapiens, UniProt P21397); assay: Activity evaluation on recombinant human MAO-A (Amplex Red/HRP-coupled assay, 0.5 mM tyramine substrate); conditions: read-out: Inhibitory Activity (IC50, nM) MAO-A
# T2 construct: purchased Sigma-Aldrich
# T2 sequence (P21397 1-527): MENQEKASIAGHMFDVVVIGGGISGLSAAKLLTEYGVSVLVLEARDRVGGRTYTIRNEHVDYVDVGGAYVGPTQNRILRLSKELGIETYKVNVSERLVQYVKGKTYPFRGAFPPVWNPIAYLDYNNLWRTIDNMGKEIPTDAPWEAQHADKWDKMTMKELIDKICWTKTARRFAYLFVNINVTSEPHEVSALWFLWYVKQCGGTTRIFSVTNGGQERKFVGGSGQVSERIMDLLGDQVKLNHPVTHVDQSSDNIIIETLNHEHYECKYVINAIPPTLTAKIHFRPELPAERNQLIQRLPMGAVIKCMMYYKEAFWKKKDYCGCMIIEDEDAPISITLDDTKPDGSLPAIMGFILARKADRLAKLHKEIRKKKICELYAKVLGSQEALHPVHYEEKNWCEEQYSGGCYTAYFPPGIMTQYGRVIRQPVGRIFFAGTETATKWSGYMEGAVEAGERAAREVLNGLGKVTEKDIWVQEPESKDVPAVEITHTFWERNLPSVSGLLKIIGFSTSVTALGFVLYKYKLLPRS
# In short: as §1
# recombinant human VAP-1 = target: T3, recombinant human VAP-1 (Homo sapiens, UniProt Q16853); assay: Activity evaluation on recombinant human VAP-1 (Amplex Red/HRP-coupled hydrogen peroxide assay, benzylamine substrate); conditions: read-out: Inhibitory Activity (IC50, nM) human VAP-1
# T3 construct: purchased R&D systems
# T3 sequence (Q16853 1-763): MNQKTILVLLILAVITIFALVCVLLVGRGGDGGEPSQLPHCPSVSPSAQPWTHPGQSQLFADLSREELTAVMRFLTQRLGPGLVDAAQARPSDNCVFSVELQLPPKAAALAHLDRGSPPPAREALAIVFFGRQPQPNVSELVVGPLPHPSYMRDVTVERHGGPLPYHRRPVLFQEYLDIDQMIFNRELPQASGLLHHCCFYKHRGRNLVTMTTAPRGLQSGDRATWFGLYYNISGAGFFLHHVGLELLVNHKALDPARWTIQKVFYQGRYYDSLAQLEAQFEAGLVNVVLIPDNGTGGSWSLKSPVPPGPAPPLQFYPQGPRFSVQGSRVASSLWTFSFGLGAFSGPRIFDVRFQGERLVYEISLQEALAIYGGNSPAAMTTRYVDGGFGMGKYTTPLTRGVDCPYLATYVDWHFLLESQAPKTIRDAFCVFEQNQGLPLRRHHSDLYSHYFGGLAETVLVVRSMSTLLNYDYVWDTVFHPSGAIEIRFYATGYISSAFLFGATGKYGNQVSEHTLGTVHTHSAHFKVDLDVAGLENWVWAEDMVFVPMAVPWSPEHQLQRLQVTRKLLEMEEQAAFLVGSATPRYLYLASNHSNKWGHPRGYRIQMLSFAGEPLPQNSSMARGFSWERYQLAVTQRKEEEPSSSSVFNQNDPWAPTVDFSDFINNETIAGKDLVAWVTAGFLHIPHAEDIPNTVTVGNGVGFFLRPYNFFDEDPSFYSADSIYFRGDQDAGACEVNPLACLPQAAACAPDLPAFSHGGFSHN
# In short: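 Recombinant human VAP-1 in 50 mM sodium phosphate pH 7.4 preincubated 30 min at 37 °C with compound (8-point 1:3 series, <1% DMSO), then 1 mM benzylamine, 200 uM Amplex Red, 1 U/mL HRP added. H2O2-derived resorufin fluorescence (ex 544/em 590) followed 1–2 h; IC50 from four-parameter fit of rate inhibition.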
# [3] = target: T4, recombinant human DAO (diamine oxidase) (Homo sapiens, UniProt P19801); assay: Activity evaluation on recombinant human DAO (Amplex Red/HRP-coupled assay, 1 mM putrescine substrate); conditions: read-out: Inhibitory Activity (IC50, nM) DAO
# T4 construct: purchased R&D systems
# T4 sequence (P19801 20-751): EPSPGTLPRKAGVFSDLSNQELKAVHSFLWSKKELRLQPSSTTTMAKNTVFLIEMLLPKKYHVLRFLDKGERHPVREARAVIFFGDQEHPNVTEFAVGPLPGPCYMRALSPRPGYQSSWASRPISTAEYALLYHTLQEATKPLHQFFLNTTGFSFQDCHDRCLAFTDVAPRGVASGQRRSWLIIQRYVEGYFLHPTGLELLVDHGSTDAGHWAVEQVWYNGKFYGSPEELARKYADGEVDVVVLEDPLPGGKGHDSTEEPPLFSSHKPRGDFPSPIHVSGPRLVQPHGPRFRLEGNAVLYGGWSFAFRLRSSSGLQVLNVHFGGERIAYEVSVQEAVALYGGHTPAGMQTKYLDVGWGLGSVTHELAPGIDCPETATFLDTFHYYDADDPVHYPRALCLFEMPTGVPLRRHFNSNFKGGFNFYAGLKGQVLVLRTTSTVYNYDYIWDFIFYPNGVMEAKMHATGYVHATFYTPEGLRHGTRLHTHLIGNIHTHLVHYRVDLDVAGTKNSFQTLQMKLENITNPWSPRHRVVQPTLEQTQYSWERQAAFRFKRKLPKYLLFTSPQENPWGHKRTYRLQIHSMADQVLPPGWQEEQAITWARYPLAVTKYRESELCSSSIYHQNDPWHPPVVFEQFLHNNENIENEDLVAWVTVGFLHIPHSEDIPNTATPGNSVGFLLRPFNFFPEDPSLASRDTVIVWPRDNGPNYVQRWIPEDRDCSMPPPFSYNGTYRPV
# In short: as §1
# [4] = recombinant human VAP-1, benzylamine substrate
# [5] = recombinant human VAP-1, 30 min preincubation at 37° C., 1 mM benzylamine
Compound,IC50 ([1]; 1 mM benzylamine substrate) [nM],IC50 ([2]; 0.5 mM tyramine substrate) [nM],IC50 (recombinant human VAP-1; [4]) [nM],IC50 ([3]; 1 mM putrescine substrate) [nM],IC50 ([1]; 1 mM benzylamine) [nM],IC50 ([2]; 0.5 mM tyramine) [nM],IC50 (recombinant human VAP-1; [5]) [nM],IC50 ([3]; 1 mM putrescine) [nM]
"NCC(Cn1ncn(Cc2ccc(-c3cccc(-c4nc[nH]n4)c3)s2)c1=O)=C(F)F [Example 185, 2-[2-(aminomethyl)-3,3-difluoro-allyl]-4-[[5-[3-(1H-1,2,4-triazol-3-yl)phenyl]-2-thienyl]methyl]-1,2,4-triazol-3-one Trifluoroacetate]",28000,> 100000,1.3,> 100000,,,,
"NCC(Cn1ncn(Cc2ccc(Br)s2)c1=O)=C(F)F [Example 97, 2-[2-(aminomethyl)-3,3-difluoro-allyl]-4-[(5-bromo-2-thienyl)methyl]-1,2,4-triazol-3-one Trifluoroacetate]",,,,,20000,> 100000,1.3,> 10000
"NCC(Cn1ncn(Cc2cc(-c3ccc4c(c3)CCC(=O)N4)cs2)c1=O)=C(F)F [Example 192, 6-[5-[[1-[2-(aminomethyl)-3,3-difluoro-allyl]-5-oxo-1,2,4-triazol-4-yl]methyl]-3-thienyl]-3,4-dihydro-1H-quinolin-2-one Trifluoroacetate]",56000,> 100000,0.4,22000,,,,
"NCC(Cn1ncn(-c2cnc(-c3ccc(N4CCNCC4)cc3)cn2)c1=O)=C(F)F [Example 90, 2-[2-(aminomethyl)-3,3-difluoro-allyl]-4-[5-(4-piperazin-1-ylphenyl)pyrazin-2-yl]-1,2,4-triazol-3-one Ditrifluoroacetate]",,,,,> 100000,> 100000,1.3,30
"Cc1cc(-c2cc(F)c(Cn3cnn(CC(CN)=C(F)F)c3=O)s2)cc2c1NC(=O)CC2 [Example 304, 6-(5-((1-(2-(aminomethyl)-3,3-difluoroallyl)-5-oxo-1,5-dihydro-4H-1,2,4-triazol-4-yl)methyl)-4-fluorothiophen-2-yl)-8-methyl-3,4-dihydroquinolin-2(1H)-one Trifluoroacetate]",> 100000,> 100000,0.7,12600,,,,
